Reference: patent US20080009546A1 (Chevron U.S.A. Inc., priority 2005, published 2008)
Like-named read-outs stand apart in the source and are kept apart here.

Tests used:
NMDA receptor = experiment: [3H]MK-801 binding assay, NMDA receptors in guinea pig brain membranes; details: for Relative affinity: compared to that of Memantine
Experimental: Hartley guinea pigs were sacrificed, and their brains were quickly removed and weighed. The brains then were homogenized in 50 mM Tris HCl buffer, pH 7.7, using a Polytron homogenizer. The homogenate was centrifuged at 40,000×g for 15 min, rehomogenized, and centrifuged again. The final pellet was resuspended in Tris-HCl, pH 7.7, at a final concentration of 6.67 mg original wet weight of tissue/ml. […] The samples were then filtered through glass fiber filters on a Tomtec cell harvester. The filters were washed 3 times with 3 ml of cold buffer. Filters were dried overnight and counted next day on a Wallac Betaplate Reader.
The binding experiments were conducted as follows. […] For each compound, graphs were prepared containing individual competition curves obtained for that compound. IC50 values and Hill coefficients were calculated using the program Prism. Ki values were calculated using the Chang Prusoff transformation: Ki=IC50/(1+L/Kd)
where L is radioligand concentration and Kd is the binding affinity of the radioligand, as determined previously by saturation analysis. […] In each experiment, one standard compound was simultaneously run on each 96 well plate.

[1] = test system: primary neurons from rat cerebral cortex; experiment: NMDA-induced LDH release assay in primary cortical neurons (neuroprotection); assay type: cell-based; set-up: Total LDH (Avg): unit not given here; details: MDT compound 30 uM, 24 hour incubation
Experimental: The neuroprotective properties of drugs have been studied in vitro, using neurons cultured from cortex, cerebellum or retina. […] Neurotoxicity is determined in this assay by measuring lactate dehydrogenase (LDH), a method which is simple, accurate and reproducible. We conducted pilot studies to test if poly-lysine-coated plates would be suitable as a matrix upon which to plate fetal neurons, compared to astrocyte-coated plates. We also compared the use of growth medium to neurobasal medium supplemented with B27 in the pilot experiments. The concentrations of NMDA (300-500 μM), glycine (10-50 μM), and memantine (10-100 μM) were varied, and optimum concentrations and times determined from these pilot studies were then chosen for the main study. The assay is described below.
Fetal rat neocortical cells were cultured on a mouse astroglial feeder layer. To obtain mouse astroglial cells for the feeder layer, cortices were harvested from 1-day old Swiss Webster mice (Charles River, Hollister, Calif.) according to the procedure described by Rose et al (1993). After dissecting cortices in ice-cold dissecting medium, they were minced and incubated in 0.09% trypsin in media stock for 1 hr, followed by resuspension in growth medium containing 10% equine serum and 10% fetal bovine serum. A single-cell suspension was obtained by triturating through fire-bored glass pipettes, and the resulting cell suspension was plated at a density of 0.5-0.75 hemispheres/24-well plate/9.6 ml, with 0.4 ml/well. Plates were incubated in a humidified incubator at 37° C., 5% CO2. Astroglial cells become confluent in about 2-3 weeks, at which time these cultures are ready to be used as feeder layers upon which neuronal cultures can be plated. Neuronal cells were obtained from gestational Sprague-Dawley rats E16-E18, using a similar dissection procedure. Rat embryos were dissected to obtain cortical tissue, which was plated as a single-cell suspension at a density of 1.4 hemispheres/24-well plate/9.6 ml, with 0.4 ml/well. These cells were plated on the existing astroglial feeder layer, and were incubated at 37° C., 5% CO2. After 5 days in culture, cytosine arabinoside (10 μM) was added to the wells to inhibit glial cell proliferation, and after 24 hours, the medium was replaced with fresh growth medium. Cells were fed with fresh growth medium every 2 days, until the experiments were performed. For coating plates with poly-lysine, we used poly-d-lysine hydrobromide (Sigma Cat # P7280) at a concentration of 0.1 mg/ml to coat each well using a minimum volume of 0.2 ml/well. After coating for 5 minutes, the solution was aspirated and wells were rinsed thoroughly with sterile tissue culture grade water. After drying for 2 hours, plates were ready for use. Neuronal cultures were plated onto poly-lysine-coated plates at the same density as above. For the pilot study, some of the cultures were fed with 1:1 ratio of growth medium: neurobasal medium (GIBCO)+B-27 supplement (2%), while the rest of the cultures were fed with growth medium alone (Losi et al., 2006). For the main study, we used astroglial feeder layers to plate the neuronal cultures, and used a mix (1:1) of growth medium with neurobasal medium+B-27 supplement for feeding the cultures.
After 11-14 days in culture, neuronal cells were confluent and experiments were performed. Cells were washed twice using sterile Locke's buffer (154 mM NaCl, 5.6 mM KCl, 2.3 mM CaCl2, 3.6 mM NaHCO3, 5.5 mM D-glucose, 5 mM HEPES, pH 7.4), and then exposed to the various treatment compounds. […] After 15 minutes, cultures were washed twice and incubated overnight in media stock. After 24 hours, supernatants and lysates were collected to measure LDH activity. LDH activity was measured by the reduction of NAD, which was utilized in the stoichiometric conversion of a tetrazolium dye using a kit (Sigma TOX-7). Supernatants were removed from the wells and centrifuged before LDH measurements. The adherent cells were lysed to obtain total LDH. […]

[2] = guinea pig brain membrane preparation (Table 29), read-out: Ki
[3] = [3H]MK-801 (1 nM), guinea pig brain membrane preparation, read-out: Ki (binding affinity)
[4] = Plate #5, astrocyte-coated rat neurons, GM fed
[5] = Plate #4, poly-lysine-coated rat neurons, GM/NB + B-27 fed
[6] = astrocyte-coated rat neurons, GM/NB + B-27 fed

1,6-dimethyl-2-aminodiamantane mixture [MDT-6]
Relative affinity (NMDA receptor): 0.159 | Ki (NMDA receptor; [2]): 4.6 ± 0.18 µM

1,6-dimethyl-4-aminodiamantane mixture [MDT-7]
Relative affinity (NMDA receptor): 0.074 | Ki (NMDA receptor; [2]): 9.9 ± 0.45 µM

3-amino-triamantane [MDT-48]
Ki (NMDA receptor; [3]): 14 µM | Relative affinity (NMDA receptor): 0.052

CC12CC3(N)CC4C5CC(CC41)CC2C5C3 (single isomer, unassigned) [MDT-22 (prep from Example 4)]
Relative affinity (NMDA receptor): 0.332 | Ki (NMDA receptor; [2]): 2.2 ± 0.9 µM

CC12CC3(N)CC4C5CC(CC41)CC2C5C3 (single isomer, unassigned) [MDT-22 (prep from Example 7)]
Relative affinity (NMDA receptor): 0.070 | Ki (NMDA receptor; [2]): 10.5 ± 1 µM

NC12CC3CC4C5CC(CC41)CC2C5C3 [MDT #1]
% (Control Wash = 100) [1, 4]: 99% | Secreted LDH (Avg) [1, 4]: 0.18 | Secreted/(total + secreted) (Avg) [1, 4]: 5.81 | Total LDH (Avg) [1, 4]: 2.96

NC12CC3CC4C5CC(CC41)CC2C5C3 [MDT #2]
% (Control Wash = 100) [1, 4]: 118% | Secreted LDH (Avg) [1, 4]: 0.23 | Secreted/(total + secreted) (Avg) [1, 4]: 6.93 | Total LDH (Avg) [1, 4]: 3.09

NC12CC3C4CC5(N)CC3C(C1)C(C5)C4C2 [MDT #5]
% (Control Wash = 100) [1, 4]: 123% | Secreted LDH (Avg) [1, 4]: 0.25 | Secreted/(total + secreted) (Avg) [1, 4]: 7.21 | Total LDH (Avg) [1, 4]: 3.27

OC12CC3CC4C1CC1CC4C(O)(C3)C2C1 [MDT #13]
% (Control Wash = 100) [1, 5]: 139% | Secreted LDH (Avg) [1, 5]: 0.54 | Secreted/(total + secreted) (Avg) [1, 5]: 15.25 | Total LDH (Avg) [1, 5]: 2.99 | % (Control Wash = 100) [1, 6]: 276% | Secreted LDH (Avg) [1, 6]: 0.85 | Secreted/(total + secreted) (Avg) [1, 6]: 19.97 | Total LDH (Avg) [1, 6]: 3.41

NC12CC3CC4C5CC(CC41)CC2C5C3 [MDT-1]
Relative affinity (NMDA receptor): 0.097 | Ki (NMDA receptor; [2]): 7.5 ± 2.4 µM

NC12CC3CC4C5CC(CC41)CC2C5C3 [MDT-2]
Relative affinity (NMDA receptor): 0.114 | Ki (NMDA receptor; [2]): 6.4 ± 0.13 µM

NC12CC3CC4C1CC1CC2C(C3)C4(N)C1 [MDT-4]
Relative affinity (NMDA receptor): 0.007 | Ki (NMDA receptor; [2]): 99.6 ± 7.6 µM

NC12CC3C4CC5(N)CC3C(C1)C(C5)C4C2 [MDT-5]
Relative affinity (NMDA receptor): 0.003 | Ki (NMDA receptor; [2]): 268 ± 19 µM

OC12CC3CC4C5CC(CC41)CC2C5C3 [MDT-10]
Ki (NMDA receptor; [2]): > 1000 µM

OC12CC3C4CC5CC3C(C1)C(C5)C4C2 [MDT-11]
Ki (NMDA receptor; [2]): > 1000 µM

OC12CC3CC4C1CC1CC4C(O)(C3)C2C1 [MDT-13]
Ki (NMDA receptor; [2]): > 1000 µM

OC12CC3C4CC5(O)CC3C(C1)C(C5)C4C2 [MDT-14]
Ki (NMDA receptor; [2]): > 1000 µM

OC12CC3C4CC5C6CC7(O)CC5C(C4C1)C(C2)(C7)C36 [MDT-15]
Ki (NMDA receptor; [2]): > 1000 µM

CC12CC3CC4C1CC1(N)CC2C(C3)C4(C)C1 [MDT-23 (prep from Example 4)]
Relative affinity (NMDA receptor): 0.187 | Ki (NMDA receptor; [2]): 3.9 ± 0.07 µM

CC12CC3CC4C1CC1(N)CC2C(C3)C4(C)C1 [MDT-23 (prep from Example 5)]
Relative affinity (NMDA receptor): 0.243 | Ki (NMDA receptor; [2]): 3 ± 0.9 µM

O=NC12CC3CC4C5CC(CC41)CC2C5C3 [MDT-26]
Ki (NMDA receptor; [2]): > 1000 µM

O=NC12CC3C4CC5CC3C(C1)C(C5)C4C2 [MDT-27]
Ki (NMDA receptor; [2]): > 1000 µM

CC12CC3(N)CC4C5CC(N)(CC41)CC2C5C3 [MDT-28, 1-methyl-4,9-diaminodiamantane]
Ki (NMDA receptor; [2]): > 1000 µM

CC12CC3CC4C1CC1(N)CC2C(C3)C4(N)C1 [MDT-29]
Relative affinity (NMDA receptor): 0.018 | Ki (NMDA receptor; [2]): 41 ± 10.7 µM

CC12CC3CC4C1CC1(N)CC2C(C3)C4(C)C1 [MDT-33, 1,6-dimethyl-4-aminodiamantane]
Relative affinity (NMDA receptor): 0.094 | Ki (NMDA receptor; [2]): 7.8 ± 0.9 µM

O=C(O)C12CC3CC4C5CC(CC41)CC2C5C3 [MDT-38]
Ki (NMDA receptor; [2]): > 1000 µM

O=C(O)C12CC3CC4C1CC1CC2C(C3)C4(C(=O)O)C1 [MDT-39]
Ki (NMDA receptor; [2]): > 1000 µM

OC12C3CC4CC5C3CC3C6CC(CC31)CC2(C4)C56 [MDT-40]
Ki (NMDA receptor; [2]): > 1000 µM

OC12CC3CC4C1CC1C5CC6CC1C2C(C6)(C3)C54 (stereo not shown) [MDT-41]
Ki (NMDA receptor; [2]): > 1000 µM

OC12CC3C4CC5C6CC7CC5C(C4C1)C(C7)(C2)C63 [MDT-42]
Ki (NMDA receptor; [2]): > 1000 µM

CC12CC3CC4C1CC1CC2C(O)(C3)C4(C)C1 (stereo not shown) [MDT-44, 1,6-dimethyl-2-hydroxydiamantane]
Ki (NMDA receptor; [2]): > 1000 µM

CC12CC3CC4C1CC1(O)CC2C(C3)C4(C)C1 [MDT-45, 1,6-dimethyl-4-hydroxydiamantane]
Relative affinity (NMDA receptor): 0.007 | Ki (NMDA receptor; [2]): 98.6 ± 0.1 µM

CC12CC3CC4C1CC1(C(=O)O)CC2C(C3)C4(C)C1 [MDT-46, 1,6-dimethyl-4-diamantanecarboxylic acid]
Ki (NMDA receptor; [2]): > 1000 µM

CC12CC3C4CC5(C)CC3C(C1)C(O)(C5)C4C2 [MDT-47, 4,9-dimethyl-1-hydroxydiamantane]
Ki (NMDA receptor; [2]): > 1000 µM

NC12CC3C4CC5C6CC7CC5C(C4C1)C(C7)(C2)C63 [MDT-49, 9-amino-triamantane]
Ki (NMDA receptor; [3]): 389 µM | Relative affinity (NMDA receptor): 0.002

CC12CC3C4CC5(C)CC3C(C1)C(C(=O)O)(C5)C4C2 [MDT-52, 4,9-dimethyl-1-diamantanecarboxylic acid]
Ki (NMDA receptor; [2]): > 1000 µM

CC12CC3C4CC5(C)CC(C(C1)C3(N)C5)C4(N)C2 [MDT-53, 4,9-dimethyl-1,6-diaminodiamantane]
Relative affinity (NMDA receptor): 0.007 | Ki (NMDA receptor; [2]): 112 ± 14 µM

NCC12CC3CC4C5CC(CC41)CC2C5C3 [MDT-56]
Relative affinity (NMDA receptor): 0.074 | Ki (NMDA receptor; [2]): 9.8 ± 4.5 µM

CC(N)C12CC3CC4C5CC(CC41)CC2C5C3 (stereo not shown) [MDT-57]
Relative affinity (NMDA receptor): 0.183 | Ki (NMDA receptor; [2]): 4 ± 0.1 µM

O=C1C2CC3C4CC5CC3C1C(C5)C4C2 [MDT-59]
Ki (NMDA receptor; [2]): > 1000 µM

CC12CC3C4CC5CC3C(C1)C(C5)C4C2 [MDT-60]
Ki (NMDA receptor; [2]): > 1000 µM

Cl.NCC12CC3C4CC5CC3C(C1)C(C5)C4C2 [MDT-61]
Relative affinity (NMDA receptor): 0.091 | Ki (NMDA receptor; [2]): 8 ± 0.9 µM

CC12CC3C4CC5(C)CC3C(C1)C(CN)(C5)C4C2 [MDT-63]
Relative affinity (NMDA receptor): 0.143 | Ki (NMDA receptor; [2]): 5.1 ± 0.3 µM
